Laboratory results from US11116757B2 (priority 2015, dated 2021).
Converted amounts (≈) assume the structure as drawn.

target: DCN1-UBC12 interaction (Homo sapiens (Human), UniProt Q96GG9); experiment: biochemical; type: binding; conditions: TR-FRET IC50
Sequence (Q96GG9 60-248 limits assumed): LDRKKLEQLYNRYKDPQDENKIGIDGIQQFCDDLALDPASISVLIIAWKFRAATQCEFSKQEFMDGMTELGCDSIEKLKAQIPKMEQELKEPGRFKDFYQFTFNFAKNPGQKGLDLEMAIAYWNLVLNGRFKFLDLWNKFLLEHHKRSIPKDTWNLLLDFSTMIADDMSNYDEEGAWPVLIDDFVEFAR

Molecule | IC50
CCCC(C)N1CCC(N(Cc2ccccc2)C(=O)Nc2ccc(C(C)(C)C)cc2)CC1 (centres unmarked) [A100] | 1.41 µM
COc1ccccc1CN1CCC(N(Cc2ccccc2)C(=O)Nc2cc(F)cc(C(F)(F)F)c2)CC1 [A224] | > 25.3 µM

same assay, conditions: Table 4, commercial compounds; read-out: TR-FRET IC50

Molecule | IC50
COc1ccc(C(=O)N2CCC(C(=O)Nc3cccc(F)c3)CC2)c2ccccc12 [C58] | > 67.6 µM
Cc1ccccc1/C=C/C(=O)N1CCC(C(=O)Nc2ccc3c(c2)OCO3)CC1 [C61] | > 67.6 µM
COc1cccc(NC(=O)C2CCN(C(=O)c3ccc(OC)c4ccccc34)CC2)c1 [C59] | > 67.6 µM
Cc1cccc(NC(=O)C2CCN(C(=O)c3cccc(F)c3)CC2)c1 [C44] | > 67.6 µM
CCc1cccc(C)c1NC(=O)C1CCN(C(=O)c2ccccc2Cl)CC1 [C37] | > 67.6 µM
CSc1cccc(NC(=O)C2CCN(C(=O)c3ccccc3C)CC2)c1 [C5] | 30.1 µM

same assay, conditions: Table 6, commercial compounds; read-out: TR-FRET IC50

Molecule | IC50
CCCN1CCN(C(=O)c2cnn(-c3nccc(-c4cccs4)n3)c2C)CC1 [E60] | > 68 µM
CCN(CC)C(=O)c1cnn(-c2nccc(-c3cccs3)n2)c1C1CC1 [E61] | > 71.6 µM
CCN(CC)CCN(CC)C(=O)c1cnn(-c2nccc(-c3cccs3)n2)c1C [E3] | 7.77 µM
COCCN1CCN(C(=O)c2cnn(-c3ncc(C)c(-c4cccs4)n3)c2C)CC1 [E32] | > 67.6 µM
CCN(CC)CCNC(=O)c1cnn(-c2nccc(-c3cccs3)n2)c1C [E54] | > 67.6 µM
Cc1c(C(=O)NCC(C)(C)CN(C)C)cnn1-c1nccc(-c2cccs2)n1 [E47] | > 67.6 µM
Cc1cnc(-n2ncc(C(=O)N(C)CC(C)C)c2C)nc1-c1cccs1 [E41] | > 67.6 µM
CCN(CC)CCN(C)C(=O)c1cnn(-c2nccc(-c3cccs3)n2)c1C1CC1 [E34] | > 67.6 µM

same assay, conditions: Table 7, commercial compounds; read-out: TR-FRET IC50

Molecule | IC50
COc1ccc(C2c3c(C)nn(C)c3NC(=O)C2NC(=O)c2ccccc2)cc1OC (centres unmarked) [F29] | > 67.6 µM
Cc1nn(-c2ccccc2)c2c1C(c1ccc(C(F)(F)F)cc1)C(NC(=O)c1ccccc1)C(=O)N2 (centres unmarked) [F19] | > 67.6 µM
CCOc1ccc(C2c3c(C)nn(C)c3NC(=O)C2NC(=O)c2ccc(Cl)cc2)cc1OC (centres unmarked) [F25] | > 67.6 µM
Cc1cccc(C(=O)NC2C(=O)Nc3c(c(C)nn3C)C2c2ccc(C(C)(C)C)cc2)c1 (centres unmarked) [F13] | > 67.6 µM

same assay, conditions: Table 10, R101 series; read-out: IC50 (μM) (TR-FRET)

Molecule | IC50
O=C(Nc1cccc(C(F)(F)F)c1)N(Cc1ccccc1)C1CCN(Cc2ccc(F)cc2)CC1 [compound 24] | 9.2 µM
O=C(Nc1cccc(C(F)(F)F)c1)N(Cc1ccccc1)C1CCN(Cc2cccnc2)CC1 [compound 23] | 12 µM

same assay, conditions: read-out: TR-FRET IC50

Molecule | IC50
C=CS(=O)(=O)NCCCN(C(=O)Nc1cccc(C(F)(F)F)c1)C1CCN(C(C)CCC)CC1 (centres unmarked) [drawing 838] | > 24 µM
COc1cc(C(=O)N2CCC(c3nc4ccccc4s3)CC2)cc(OC)c1Br [D1] | 2.31 µM
O=C(Nc1cccc(C(F)(F)F)c1)N[C@H]1CCN(Cc2ccccc2)C[C@@H]1O [A185] | 30 µM
CN(C)c1ccc(CN2CCC(N(Cc3ccccc3)C(=O)Nc3cc(F)cc(C(F)(F)F)c3)CC2)cc1 [A209] | > 21.5 µM
COc1cc(SC)ccc1C(=O)N1CCC(c2nc3ccccc3s2)CC1 [D21] | > 67.6 µM
O=C(NC1CCN(Cc2ccccc2)CC1)NC1CCC2(CC1)OCCO2 [B26] | > 165 µM
CCCC(C)N1CCC(N(Cc2ccccc2)C(=O)Nc2cccc(OC(C)C)c2)CC1 (centres unmarked) [A132] | 3.17 µM
O=C(Nc1cc(F)cc(C(F)(F)F)c1)N(Cc1ccccc1)C1CCN(CC2CCOC2)CC1 (centres unmarked) [A144] | 4.49 µM
Cc1cc(NC(=O)NC2CCN(Cc3ccccc3)CC2)c(C(F)(F)F)o1 [B119] | > 79 µM
O=C(c1ccccc1Br)N1CCC(c2nc3ccccc3s2)CC1 [D8] | 19.8 µM
CCCC(C)N1CCC(N(Cc2cccc(NC(=O)CCl)c2)C(=O)Nc2cccc(C(F)(F)F)c2)CC1 (centres unmarked) [A17] | 0.0951 µM
CCCC(C)N1CCC(N(Cc2cccc(CNC(=O)CCl)c2)C(=O)Nc2cccc(C(F)(F)F)c2)CC1 (centres unmarked) [drawing 847] | < 0.01 µM
CCCC(C)N1CCC(N(Cc2cccnc2)C(=O)Nc2ccc(F)c(C(F)(F)F)c2)CC1 (centres unmarked) [A55] | 0.303 µM
O=C(Nc1cccc2ccccc12)NC1CCN(Cc2ccccc2)CC1 [B39] | > 61.8 µM
CC(=O)N1CCC(N(Cc2ccco2)C(=O)Nc2ccc(C)c(C)c2)CC1 [B69] | > 67.6 µM
CCCC(C)N1CCC(N(Cc2ccccc2)C(=O)Nc2ccn(-c3ccc(Cl)cc3)n2)CC1 (centres unmarked) [A153] | 6.47 µM
FC(F)(F)c1ccnc(NC2CCN(Cc3ccccc3)CC2)n1 [B124] | > 90.4 µM
CCCC(C)N1CCC(N(Cc2cccc(NC(=O)CCl)c2)C(=O)Nc2cccc(C(F)(F)F)c2)CC1 (centres unmarked) [drawing 842] | 0.095 µM
CCCC(C)N1CCC(N(Cc2ccccc2)C(=O)Nc2ccc(C)cc2)CC1 (centres unmarked) [A50] | 0.268 µM
COc1cc(C(=O)N2CCC(c3nc4ccccc4s3)CC2)cc(OC)c1OC [D2] | 8.53 µM
CCCC(C)N1CCC(N(Cc2ccccc2)C(=O)Nc2cc(F)c(F)c(F)c2)CC1 (centres unmarked) [A59] | 0.355 µM
COc1ccc(CN(C(=O)Nc2cc(C)ccc2OC)C2CCN(C(C)=O)CC2)cc1 [B87] | > 67.6 µM
CC(C1CCCCC1)N1CCC(N(Cc2ccccc2)C(=O)Nc2cc(F)cc(C(F)(F)F)c2)CC1 (centres unmarked) [A125] | 1.77 µM

Molecule | IC50
Cc1ccc(CN(C(=O)Nc2cc(F)ccc2F)C2CCN(Cc3ccccc3)CC2)o1 [B93] | > 67.6 µM
CCCC(C)N1CCC(N(Cc2ccccc2)C(=O)Nc2cc(C)ccc2F)CC1 (centres unmarked) [A181] | 19.8 µM
O=C(Nc1ccc(Cl)cc1)NC1CCN(Cc2ccccc2)CC1 [B58] | > 67.6 µM
COc1cc(OC)cc(C(=O)N2CCC(c3nc4ccccc4s3)CC2)c1 [D22] | > 67.6 µM
CC1CC(NC(=O)NC2CCCNC2=O)CCN1Cc1ccccc1 (centres unmarked) [B36] | > 57.8 µM
CCCc1ccc(NC(=O)N(Cc2ccccc2)C2CCN(C(C)CCC)CC2)cc1 (centres unmarked) [A66] | 0.47 µM
O=C(Nc1ccc(CN2CCCCC2)cc1)Nc1cc(C(F)(F)F)ccc1Cl [B29] | > 50.3 µM
O=C(Nc1ccncc1[NH2+][O-])NC1CCN(Cc2ccccc2)CC1 [B120] | > 79.1 µM
CCCCN1CCC(N(Cc2ccccc2)C(=O)Nc2ccc(F)c(Cl)c2)CC1 [A89] | 1.09 µM
CCCC(C)N1CCC(N(Cc2ccccc2CNC(=O)CCl)C(=O)Nc2cccc(C(F)(F)F)c2)CC1 (centres unmarked) [A24] | 0.154 µM
CCC(C)CN1CCC(N(Cc2ccccc2)C(=O)Nc2cc(F)cc(C(F)(F)F)c2)CC1 (centres unmarked) [A121] | 1 µM
CC(N1CCC(N(Cc2ccccc2)C(=O)Nc2cccc(C(F)(F)F)c2)CC1)C(F)(F)F (centres unmarked) [A223] | > 25.3 µM
CCN1CCC(N(Cc2ccco2)C(=O)Nc2cccc(C(F)(F)F)c2)CC1 [B3] | 3.85 µM
1-Benzyl-1-(1-(Cyclohexylmethyl)Piperidin-4-yl)-3-(3-(Trifluoromethyl)Phenyl)Urea [A149] | 5.25 µM
O=C(c1ccc(I)cc1)N1CCCC(c2nc3ccccc3s2)C1 (centres unmarked) [D31] | > 67.6 µM
O=C(CN1CCC(Cc2ccccc2)CC1)Nc1cc(C(F)(F)F)cc(C(F)(F)F)c1 [B118] | > 78.5 µM
1-(1-((1H-Pyrazol-3-yl)Methyl)Piperidin-4-yl)-1-Benzyl-3-(3-(Trifluoromethyl)Phenyl)Urea [A180] | 19.8 µM
CCCCN1CCC(N(Cc2ccccc2)C(=O)Nc2cccc(F)c2)CC1 [A136] | 3.57 µM
CCCCN(C(=O)Nc1cc(F)cc(C(F)(F)F)c1)C1CCN(C(C)CCC)CC1 (centres unmarked) [A84] | 0.917 µM
CCCC(C)N1CCC(N(Cc2ccccc2)C(=O)Nc2ccc(CC)cc2)CC1 (centres unmarked) [A56] | 0.315 µM
Cc1cc(NC(=O)NC2C(C)CN(Cc3ccccc3)CC2C)no1 (centres unmarked) [B121] | > 81.9 µM
CC(c1ccc(Cl)cc1)N1CCC(N(Cc2ccccc2)C(=O)Nc2cc(F)cc(C(F)(F)F)c2)CC1 (centres unmarked) [A216] | > 23.8 µM
CCCCN1CCC(N(Cc2ccccc2)C(=O)Nc2cc(C(F)(F)F)cc(C(F)(F)F)c2)CC1 [A274] | > 68.2 µM

system: not given; experiment: not given; type: in vitro ADME; conditions: Table 10
Method: Test compound stock (10 mM in DMSO, 3 μL) was mixed with citrate phosphate buffered saline (597 μL) to make diluted test compound. Diluted test compound (150 μL) was transferred to a UV plate (pION Inc., Woburn, Mass.) and the UV spectrum (250 nm-500 nm) was read as the reference plate. Each well of the donor plate in a PAMPA sandwich plate (pION Inc., Woburn, Mass.) contained a filter that was painted on one side with 4 μL GIT lipid (pION Inc., Woburn, Mass.) to form a membrane. Each well in the acceptor plate in a PAMPA sandwich, preloaded with magnetic stir bars, was filled with acceptor solution buffer (200 pION Inc., Woburn, Mass.). The donor plate was filled with diluted test compound (180 The PAMPA sandwich was assembled by placing the donor plate over the acceptor plate. The combined PAMPA plate was placed on a pIon Gut-Box™, a stirring apparatus that allows equilibrium to be reached quicker. Aqueous Boundary Layer of the pIon Gut-Box™ was set to 40 μm and the compounds stirred for 30 minutes. The UV spectrum (250 nm-500 nm) of the donor and the acceptor were read. The permeability coefficient was calculated using PAMPA evolution 96 command software (pION Inc., Woburn, Mass.) based on the whole spectrum measured from the reference plate, the donor plate, and the acceptor plate. All compounds were tested in triplicates.

Molecule | Pampa (×10^−6 cm/s)
O=C(Nc1cccc(C(F)(F)F)c1)N(Cc1ccccc1)C1CCN(Cc2ccc(F)cc2)CC1 [compound 24] | >2200 ×10^−6 cm/s
O=C(Nc1cccc(C(F)(F)F)c1)N(Cc1ccccc1)C1CCN(Cc2cccnc2)CC1 [compound 23] | >2200 ×10^−6 cm/s
CCOc1cc(CN2CCC(N(Cc3ccccc3)C(=O)Nc3cccc(C(F)(F)F)c3)CC2)cc(Cl)c1O [compound 25] | 110 ± 190 ×10^−6 cm/s

system: not listed separately; experiment: physchem; conditions: aqueous buffer, kinetic from dmso stock
Method: Solubility assays were carried out on a Biomek FX lab automation workstation (Beckman Coulter, Inc., Fullerton, Calif.) using μSOL Evolution software (pION Inc., Woburn, Mass.). […] Compound stock (10 mM in DMSO, 10 μL) was added to 1-propanol (190 μL) to make a reference stock plate. […] Test compound stock (10 mM, 6 μL) was added to buffer (594 μL) in a 96-well storage plate and mixed. […] The suspension was then filtered through a 96-well filter plate (pION Inc., Woburn, Mass.). […] Calculation was carried out by μSOL Evolution software based on the AUC (area under curve) of UV spectrum of the sample plate and the reference plate. All compounds were tested in triplicate.

Molecule | solubility kinetic
O=C(Nc1cccc(C(F)(F)F)c1)N(Cc1ccccc1)C1CCN(Cc2ccc(F)cc2)CC1 [compound 24] | 0.9 ± 0.1 µM (≈ 0.437 µg/mL)
O=C(Nc1cccc(C(F)(F)F)c1)N(Cc1ccccc1)C1CCN(Cc2cccnc2)CC1 [compound 23] | 30 ± 1.1 µM (≈ 14.1 µg/mL)
CCOc1cc(CN2CCC(N(Cc3ccccc3)C(=O)Nc3cccc(C(F)(F)F)c3)CC2)cc(Cl)c1O [compound 25] | 0.4 ± 0.1 µM (≈ 0.225 µg/mL)
